In patent US20160002174A1, “CXCR4 Antagonists for the Treatment of Medical Disorders” (Emory University, priority 2005, published 2016):
“Also recorded” adds a separate entry of the source. Values belong to the compound of their own block, whether it stands above or below them.

What was measured:
phosphorylation of Akt = test: SDF-1-stimulated phosphorylation of Akt (western blot); type: cell-based, human; details: for blocking of SDF-1-stimulated Akt phosphorylation (dose-dependent): MDA-MB-231 cells, 100 ng/ml SDF-1 for 30 min
Description: FIG. 2 is an image of a western blot showing phosphorylation of Akt.
FIG. 10 is a graph and representative blot of matrigel invasion and Akt phosphorylation in cells.
(§1) CXCR4/SDF-1 interaction activates PI3K/Akt and Ras/Raf/MEK/Erk pathways in a Gαi protein (PTX-sensitive)-dependent manner.

[1] = system: human umbilical vein endothelial cells (HUVECs); test: Endothelial capillary tube formation assay; type: cell-based; details: 100 nM, SDF-1 100 ng/ml, 18 hours
Description: The anti-angiogenic effect of test compounds was measured by analyzing endothelial cell growth and tube formation. The angiogenic effect of SDF-1 (100 ng/ml) on capillary formation by human umbilical vein endothelial cells (HUVECs) was examined in vitro using Matrigel-coated 24-well plates precoated with Matrigel and incubated for 18 hours. The angiogenic effect of SDF-1 was inhibited by either 100 nM TN14003 (peptide-based CXCR4 antagonist) or WZZL811S treatment (FIG. 14a, graph FIG. 14b).

MDA-MB-231 cells = test: Cell viability of MDA-MB-231 cells; type: cell-based, human; details: even at 100 μM (the highest concentration tested)
SHIV = SHIV infection, p27 antigen capture; type: cell-based; details: 0.1, 1, 10 or 100 nM drug prior to infection; 2 to 5 days
Description: The effect of the test compounds on HIV infection in model cells was analyzed by p27 antigen capture using SHIV infected cells. Cells were incubated with 0, 0.1, 1, 10 or 100 nM drug prior to infection with SHIV. Viral titer was measured after infection by analyzing levels of p27 antigen. […] The inhibition was measurable at 2 days, and continued to 5 day incubations.

metastatic 686LN cells = test: Head & Neck cancer metastasis model, 686LN cells injected through the tail vein, FDG-PET; type: in vivo, mice; details: 20 mg/mouse/twice weekly, thirty days
Description: The metastatic 686LN cells were injected intravenously through the tail vein to generate experimental animal models for Head & Neck cancer metastasis, modulated via CXCR4. […] These 3-D projection images show lung metastases well (bone mets and liver mets were apparent in axial section images of mice in control groups, data not shown).

[2] = system: CXCR4/SDF-1 mediated invasion of MDA-MB-231; test: Matrigel invasion assay, CXCR4/SDF-1-mediated invasion; type: cell-based, human; details: MDA-MB-231, 2 nM
Description: FIG. 10 is a graph and representative blot of matrigel invasion and Akt phosphorylation in cells. A: Inhibition of CXCR4/SDF-1 mediated invasion of MDA-MB-231 in vitro by WZZL811S. CXCR4/SDF-1 mediated invasion of MDA-MB-231 was blocked either by 2 nM of TN14003 or WZZL811S. B: Incubating MDA-MB-231 cells with 100 ng/ml of SDF-1 for 30 min stimulated phosphorylation of Akt that blocked by WZZL811S in a dose-dependent manner
Lowering CXCR4 mRNA levels by siRNAs inhibited CXCR4/SDF-1-mediated invasion as measured by a matrigel invasion assay. The CXCR4 ligand, SDF-1 (400 ng/ml) was added to the lower chamber to attract CXCR4-positive breast cancer cells to migrate through the matrigel. The invasion of MDA-MB-231 cells transfected with siRNA1 decreased to 39±4% of the control cells, 51±8% with siRNA2, and only 16±6% with both siRNA1+2 (FIG. 3A).
WZZL811S was tested in a matrigel invasion assay to determine whether it can inhibit CXCR4/SDF-1-mediated invasion.

CXCR4 = CXCR4 (Homo sapiens, UniProt P61073); test: Competition assay using biotin-labeled TN14003 and streptavidin-conjugated rhodamine on tumor cells; type: binding; details: cells pre-incubated with different concentrations
CXCR4, sequence (P61073 whole entry): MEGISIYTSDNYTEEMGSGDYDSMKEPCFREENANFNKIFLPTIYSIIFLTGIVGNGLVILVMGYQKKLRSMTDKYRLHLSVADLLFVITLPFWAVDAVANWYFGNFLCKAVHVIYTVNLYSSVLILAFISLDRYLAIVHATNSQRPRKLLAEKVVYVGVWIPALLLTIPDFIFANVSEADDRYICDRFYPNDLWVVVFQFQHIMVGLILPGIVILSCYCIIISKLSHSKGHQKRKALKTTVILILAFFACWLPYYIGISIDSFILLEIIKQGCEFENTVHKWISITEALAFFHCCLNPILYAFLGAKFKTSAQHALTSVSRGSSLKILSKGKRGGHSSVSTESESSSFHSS
Description: FIG. 8 is images of fluorescens micrographs of stained cells. Biotin-labeled TN14003 was used to detect CXCR4 protein from the cells pre-incubated with various concentrations of WZZL811S.
Using biotin-labeled TN14003 along with streptavidin-conjugated rhodamine allowed a determination of the binding efficiency of these chemicals to the SDF-1 binding site of CXCR4 on tumor cells and compared it to AMD3100-SDF-1 interactions (FIG. 7). […] Cells were pre-incubated with different concentrations of AMD3100. […] Therefore, one of these compounds, WZZL811S, was selected to study its therapeutic potential based on potency and low toxicity to cells (FIG. 9).

CXCR4 protein levels = CXCR4 protein levels in treated cells; type: cell-based, human
Description: as §1

Erk1/2 phosphorylation = test: SDF-1-stimulated Erk1/2 phosphorylation; type: cell-based, human; details: data not shown
Description: as §1

[3] = cited from earlier work

Structure (SMILES): c1ccc(NCc2ccc(CNc3ccccn3)cc2)nc1 [WZZL811S]
blocking of SDF-1-stimulated Akt phosphorylation (dose-dependent) (phosphorylation of Akt): blocked | inhibition of the angiogenic effect of SDF-1 (tube formation) [1]: inhibited | effect on cell viability (MDA-MB-231 cells): did not decrease cell viability | inhibition of SHIV infection (p27 antigen) (SHIV): inhibited SHIV infection at all concentrations tested | efficacy relative to TN14003 (metastatic 686LN cells): 80% | blocking of SDF-1-induced matrigel invasion [2]: blocked; also recorded: as potent as TN14003

concentration needed to compete against biotin-labeled TN14003 (CXCR4): 10 µM
Structure (SMILES): C1=CC(CN2CCCNCCNCCCNCC2)CC=C1CN1CCCNCCNCCCNCC1 (stereo not drawn) [AMD3100]
concentration blocking Akt activation (phosphorylation of Akt; 100 ng/ml SDF-1 for 30 minutes): a few nano molar | blocking of SDF-1-stimulated Akt phosphorylation (dose-dependent) (phosphorylation of Akt): blocked | effect on CXCR4 protein levels (CXCR4 protein levels): did not affect | concentration attenuating Erk1/2 phosphorylation (Erk1/2 phosphorylation): 100 nM | side effect in clinical study [3]: cardiac-related side effect
